Assay results from patent US12146131B2, “Testing apparatus and testing method” (HITACHI HIGH-TECH CORPORATION, priority 2019, dated 2024).

Legend:
Format in all cases: cell-based
Pseudomonas aeruginosa [1] = assay: drug sensitivity test, bacterial area value from time-series microscopic images (image processing of second embodiment); conditions: cultured 12 hours, FIG. 10
From the text: (§1) In a drug sensitivity test for bacteria, it is important to measure properties of bacteria and increase or decrease in the number of bacteria, and in a third embodiment, for example, an example applied to the drug sensitivity test will be described. Also in the third embodiment, the fine particle testing apparatus 100 described in the first embodiment can be used. However, the sample solution 108 contains bacteria, a medium component necessary for growth of the bacteria, and an antimicrobial agent to be tested. The fine particle testing apparatus 100 is temperature-adjusted to a temperature suitable for growth of the bacteria, for example, 37° C. Further, a plate having 96 holes or 384 holes can be used as the testing plate 102.
In the fine particle testing apparatus 100, an image is acquired by focusing the lens 104 on the vicinity of the well bottom surface of the testing plate 102 for each imaging. However, in a case where the fine particles are bacteria, in particular, highly motile bacteria, even if adjustment is performed for each imaging so as to focus on one well each time, an image with a clear contour may not be acquired, resulting in an image as illustrated in FIGS. 8A to 8B. As an example of such a case, a measurement example using Pseudomonas aeruginosa considered to have high motility as a bacterium different from the result of FIG. 9 will be described (see FIG. 10). […]

Pseudomonas aeruginosa [2] = assay: drug sensitivity test, turbidity measurement after 18 hours of culture; conditions: turbidity after 18 hours from start of culture
bacteria [3] = assay: drug sensitivity test, bacterial area value from time-series microscopic images (image processing of first embodiment); conditions: FIG. 9
From the text: as §1
FIG. 9 is a diagram illustrating a relationship of the area of a bacterial region corresponding to the sum of area values of fine particles obtained by executing the processing of steps 200 to 204 (image processing of the first embodiment) on a plurality of time-series images obtained by the imaging part 105 of the fine particle testing apparatus 100. This measurement result is a result of imaging bacteria cultured for 8 hours in a culture solution containing ampicillin/sulbactam at concentrations of 0.5/0.25 μg/mL and 32/16 μg/mL.

bacteria [4] = assay: drug sensitivity test, turbidity measurement of the well after 18 hours of culture; conditions: turbidity after 18 hours from start of culture
From the text: as §1, with “Further, a plate having 96 holes or 384 holes can be used as the testing plate 102.” left out
Here, the sensitivity of this bacterium to ampicillin/sulbactam is found to be “proliferation” at a concentration of 0.5/0.25 μg/mL and “suppression” at a concentration of 32/16 μg/mL by turbidity measurement of the well after 18 hours from the start of culture. […] This example has shown that proliferation/suppression is determined at two concentrations of the antimicrobial agent, but actually, the concentration of the drug is more finely changed to determine proliferation/suppression. The minimum antimicrobial agent concentration is referred to as minimum inhibitory concentration (MIC), and the MIC is preferably calculated based on the result of proliferation/suppression. […]

gentamicin
bacterial area value over time (Pseudomonas aeruginosa [1]; gentamicin 0.12 μg/mL): starts to increase exponentially after 4 hours from the start of culture | bacterial area value over time (Pseudomonas aeruginosa [1]; gentamicin 8 μg/mL): slightly increases | sensitivity of bacterium (proliferation/suppression) (Pseudomonas aeruginosa [2]; gentamicin 0.12 μg/mL): proliferation | sensitivity of bacterium (proliferation/suppression) (Pseudomonas aeruginosa [2]; gentamicin 8 μg/mL): suppression

ampicillin/sulbactam
bacterial area value over time (bacteria [3]; ampicillin/sulbactam 0.5/0.25 μg/mL, cultured 8 hours): starts to increase exponentially after 2 hours from the start of culture | bacterial area value over time (bacteria [3]; ampicillin/sulbactam 32/16 μg/mL, within 8 hours from start of culture): substantially unchanged from the initial value | sensitivity of bacterium (proliferation/suppression) (bacteria [4]; ampicillin/sulbactam 0.5/0.25 μg/mL): proliferation | sensitivity of bacterium (proliferation/suppression) (bacteria [4]; ampicillin/sulbactam 32/16 μg/mL): suppression
